# Results published in US7348017B2, “Dithiazole compounds, matrix metalloprotease inhibitors and external preparations for the skin” (Shiseido Co., Ltd., priority 2001, dated 2008).
# Target: T1, MMP-9 (crude enzyme solution derived from a mouse skin) (Mus musculus, UniProt P41245)
# T1 construct: crude enzyme solution derived from a mouse skin; from tissue; host or cells: mouse skin
# Test: Gelatinase group MMPs inhibition test (gelatin zymography)
# Type: biochemical
# Design: key: ⊚: The band disappeared.; ◯: The band was slightly confirmed.; Δ: The band became narrower than control.; ×: Unchanged
# Details: sample solution 100 μM; gel incubated overnight; size of MMP-9 band compared with control solution
# Procedure: A test material was dissolved in dimethyl sulfoxide (DMSO) to the concentration of 10 mM, to prepare a stock solution. The stock solution was diluted with a measuring buffer (0.05M tris at pH 7.5 containing 0.2M NaCl and 5 mM CaCl2) to adjust the concentration to 100 μM, which was used as a sample solution. As a control solution, a solution containing no test material was similarly prepared.
# (b) Gelatinase Group MMPs Inhibition Test
# As a gelatinase group enzyme, MMP-9 (crude enzyme solution derived from a mouse skin) was used. The test was performed according to a gelatin zymography method (“Bio-antioxidant provitamin C”, Nobuhiko Miwa ed., p.76, 1999, Fragrance Journal, Tokyo).
# That is, a gel containing gelatin in which a predetermined amount of the crude enzyme solution had been subjected to electrophoresis in advance, was incubated overnight with a sample solution or a control solution. After the gel was stained, the appearing band corresponding to MMP-9 was evaluated by a decrease when its size compared with that of a band of control solution. Evaluation criteria was as follows: • ⊚: The band disappeared. • ◯: The band was slightly confirmed. • Δ: The band became narrower than control. • ×: Unchanged.
# T1 sequence (P41245 108-730): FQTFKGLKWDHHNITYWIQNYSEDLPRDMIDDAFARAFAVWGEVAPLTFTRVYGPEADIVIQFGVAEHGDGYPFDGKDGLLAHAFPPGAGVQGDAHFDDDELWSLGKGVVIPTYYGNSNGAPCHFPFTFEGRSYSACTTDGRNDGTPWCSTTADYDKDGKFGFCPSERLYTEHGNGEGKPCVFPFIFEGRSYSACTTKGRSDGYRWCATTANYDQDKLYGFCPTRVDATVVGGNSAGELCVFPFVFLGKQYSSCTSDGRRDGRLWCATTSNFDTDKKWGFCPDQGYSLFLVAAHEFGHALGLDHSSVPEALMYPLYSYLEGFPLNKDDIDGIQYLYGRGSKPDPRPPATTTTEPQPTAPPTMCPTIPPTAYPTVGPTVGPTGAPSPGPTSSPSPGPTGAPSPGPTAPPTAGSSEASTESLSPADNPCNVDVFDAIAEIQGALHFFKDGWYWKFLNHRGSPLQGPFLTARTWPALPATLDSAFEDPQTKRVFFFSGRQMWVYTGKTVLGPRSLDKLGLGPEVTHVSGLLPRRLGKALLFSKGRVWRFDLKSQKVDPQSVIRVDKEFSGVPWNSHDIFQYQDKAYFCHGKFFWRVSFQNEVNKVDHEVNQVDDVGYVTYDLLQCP
row,MMPs Inhibition,SMILES
1,◯,"O=C(Cc1cccc(OCc2ccc(F)cc2)c1)Nc1nc(=S)ss1 [Compound 8, 2-{3-[(4-Fluorobenzyl)oxy]phenyl}-N-(3-thioxo-3H-1,2,4-dithiazol-5-yl)acetoamide]"
2,⊚,"CC(C)C(C(=O)Nc1nc(=S)ss1)c1ccc(OCc2ccc(F)cc2)cc1 (stereo not shown) [Compound 12, 2-{4-[(4-Fluorobenzyl)oxy]phenyl}-3-methyl-N-(3-thioxo-3H-1,2,4-dithiazol-5-yl)butanamide]"
3,◯,"O=C(Cc1cc(OCc2ccc(F)cc2)cc(OCc2ccc(F)cc2)c1)Nc1nc(=S)ss1 [Compound 9, 2-{3,5-Bis[(4-fluorobenzyl)oxy]phenyl}-N-(3-thioxo-3H-1,2,4-dithiazol-5-yl)acetoamide]"

# Continued, compound first:
row,SMILES,MMPs Inhibition
1,"O=C(Cc1ccc(OCc2ccc(F)cc2)cc1)Nc1nc(=S)ss1 [Compound 5, 2-{4-[(4-Fluorobenzyl)oxy]phenyl}-N-(3-thioxo-3H-1,2,4-dithiazol-5-yl)acetoamide]",◯
2,"O=C(Cc1ccccc1OCc1ccc(F)cc1)Nc1nc(=S)ss1 [Compound 7, 2-{2-[(4-Fluorobenzyl)oxy]phenyl}-N-(3-thioxo-3H-1,2,4-dithiazol-5-yl)acetoamide]",◯
3,"COc1ccc(S(=O)(=O)N(CC(=O)Nc2nc(=S)ss2)Cc2ccccc2)cc1 [Compound 1, 2-{Benzyl[(4-methoxyphenyl)sulfonyl]amino}-N-(3-thioxo-3H-1,2,4-dithiazol-5-yl) acetoamide]",◯
4,"CC(C)=CCC/C(C)=C/COc1ccc(CC(=O)Nc2nc(=S)ss2)cc1 [Compound 2, 2-{4-[(3,7-Dimethyl-2,6-octadienyl)oxy]phenyl}-N-(3-thioxo-3H-1,2,4-dithiazol-5-yl)acetoamide]",◯
